According to ChEMBL document CHEMBL1145635, “Identification of long chain alkylidenemalonates as novel small molecule modulators of histone acetyltransferases” (2008):
Calls of active or inactive are those of the source. No cut-off for these calls is given here.

Tests used:
[1] = test system: HEK-TE; assay: Increase in histone H3 acetylation in human HEK-TE cells at 5 uM after 6 hrs by Western blot analysis; type: functional, cell-based
[2] = test system: U-937; assay: Inhibition of p300/CBP in human U937 cells at 50 uM; type: cell-based; set-up: scale not given: the % may be the effect or the level left
[3] = test system: U-937; assay: Inhibition of recombinant CBP in human U937 cells at 50 uM; type: cell-based; set-up: scale not given: the % may be the effect or the level left
[4] = test system: U-937; assay: Increase in histone H3 acetylation in human U937 cells at 5 uM after 20 hrs by Western blot analysis; type: functional, cell-based
[5] = biological target: Histone acetyltransferase KAT2A (Homo sapiens) (UniProt Q92830); assay: Inhibition of GCN5 in human U937 cells at 50 uM; type: cell-based; details: U-937
Sequence of Histone acetyltransferase KAT2A (Homo sapiens) (Q92830 2-837 limits assumed): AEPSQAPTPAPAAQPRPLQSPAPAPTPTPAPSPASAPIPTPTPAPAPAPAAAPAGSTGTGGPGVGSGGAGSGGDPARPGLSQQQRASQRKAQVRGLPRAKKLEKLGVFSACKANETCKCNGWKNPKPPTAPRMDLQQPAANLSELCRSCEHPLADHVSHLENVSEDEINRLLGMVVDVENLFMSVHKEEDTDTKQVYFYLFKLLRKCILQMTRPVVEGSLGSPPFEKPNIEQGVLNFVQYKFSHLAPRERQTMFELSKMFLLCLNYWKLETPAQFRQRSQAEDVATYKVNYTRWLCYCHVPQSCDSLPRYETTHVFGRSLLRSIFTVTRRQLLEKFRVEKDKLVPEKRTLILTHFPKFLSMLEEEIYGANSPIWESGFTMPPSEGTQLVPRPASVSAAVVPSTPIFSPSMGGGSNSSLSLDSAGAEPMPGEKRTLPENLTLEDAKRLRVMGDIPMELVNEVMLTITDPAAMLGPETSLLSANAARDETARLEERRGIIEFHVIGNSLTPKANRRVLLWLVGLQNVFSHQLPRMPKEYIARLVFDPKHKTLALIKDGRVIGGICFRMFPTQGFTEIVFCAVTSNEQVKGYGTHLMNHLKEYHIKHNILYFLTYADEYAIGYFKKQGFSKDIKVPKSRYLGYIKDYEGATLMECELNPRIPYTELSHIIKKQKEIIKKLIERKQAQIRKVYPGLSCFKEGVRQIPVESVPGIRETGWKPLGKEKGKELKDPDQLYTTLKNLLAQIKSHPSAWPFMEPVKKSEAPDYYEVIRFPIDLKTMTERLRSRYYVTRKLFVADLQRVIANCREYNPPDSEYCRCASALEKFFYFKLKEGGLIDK

[6] = test system: U-937; assay: Effect on non histone alpha-tubulin in human U937 cells at 50 uM after 16 hrs by Western blot analysis; type: functional, cell-based
[7] = test system: U-937; assay: Induction of apoptosis in human U937 cells at 50 uM after 42 hrs by flow cytometry; type: functional
[8] = test system: HEK-TE; assay: Increase in histone H3 acetylation in human HEK-TE cells at 50 uM after 6 hrs by Western blot analysis; type: functional, cell-based
[9] = test system: U-937; assay: Increase in histone H3 acetylation in human U937 cells at 50 uM after 20 hrs by Western blot analysis; type: functional, cell-based
[10] = biological target: Histone acetyltransferase KAT2B (Homo sapiens) (UniProt Q92831); assay: Effect on PCAF in human U937 cells assessed as increase in acetylation activity at 50 uM; type: cell-based; details: U-937
Sequence of Histone acetyltransferase KAT2B (Homo sapiens) (Q92831 whole entry, looked up): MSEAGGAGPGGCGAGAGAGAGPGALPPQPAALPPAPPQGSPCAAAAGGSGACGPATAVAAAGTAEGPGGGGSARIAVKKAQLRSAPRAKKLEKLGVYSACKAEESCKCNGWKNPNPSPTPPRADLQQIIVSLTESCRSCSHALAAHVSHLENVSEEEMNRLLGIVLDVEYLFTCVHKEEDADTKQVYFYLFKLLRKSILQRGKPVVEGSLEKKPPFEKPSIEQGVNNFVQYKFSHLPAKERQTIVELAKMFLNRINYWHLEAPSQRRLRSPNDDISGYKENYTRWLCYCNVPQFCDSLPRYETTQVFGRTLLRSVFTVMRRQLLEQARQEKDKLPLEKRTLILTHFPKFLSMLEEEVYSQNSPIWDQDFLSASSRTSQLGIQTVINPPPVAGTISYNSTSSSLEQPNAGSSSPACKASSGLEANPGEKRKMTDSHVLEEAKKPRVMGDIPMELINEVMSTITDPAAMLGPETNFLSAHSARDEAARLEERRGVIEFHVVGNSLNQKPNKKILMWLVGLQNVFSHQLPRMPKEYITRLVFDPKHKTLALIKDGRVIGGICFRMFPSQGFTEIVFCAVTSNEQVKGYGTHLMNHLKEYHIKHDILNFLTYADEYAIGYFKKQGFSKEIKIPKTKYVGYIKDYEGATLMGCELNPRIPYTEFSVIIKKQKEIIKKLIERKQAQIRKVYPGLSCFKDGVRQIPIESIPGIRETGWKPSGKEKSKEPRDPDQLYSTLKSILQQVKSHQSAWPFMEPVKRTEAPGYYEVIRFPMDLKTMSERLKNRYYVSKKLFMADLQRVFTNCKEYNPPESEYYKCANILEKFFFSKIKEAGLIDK

[11] = test system: U-937; assay: Increase in histone H3 acetylation in human U937 cells at 50 uM after 16 hrs by Western blot analysis; type: functional, cell-based
[12] = test system: U-937; assay: Induction of apoptosis in human U937 cells at 25 uM after 42 hrs by flow cytometry; type: functional
[13] = test system: U-937; assay: Cell cycle arrest in human U937 cells assessed as accumulation at S phase at 25 uM after 42 hrs by flow cytometry; type: functional, cell-based

| SMILES | Activity [1] | Activity [2] [%] | Activity [3] [%] | Activity [12] [%] | Activity [13] | further results |
| --- | --- | --- | --- | --- | --- | --- |
| O=C(CCCCCCC(=O)Nc1ccccc1)NO | Active |  |  |  |  |  |
| COc1cc(/C=C/C(=O)CC(=O)/C=C/c2ccc(O)c(OC)c2)ccc1O |  | 46 |  |  |  |  |
| C=CC/C=C\C/C=C\CCCCCCCc1cccc(O)c1C(=O)O |  |  | 62 |  |  |  |
| CCCCCCCCCCCCCCC=C(C(=O)OCC)C(=O)OCC | Active | 74 | 81 | 23.9 | Active | Activity [4]: Active; Activity [5]: inactive; Activity [6]: inactive; Activity [7]: 94.4%; Activity [8]: Active; Activity [9]: Active; Activity [10]: Active; Activity [11]: Active |
| C=C1C(=O)O[C@H](CCC)[C@H]1C(=O)O |  |  | 55 |  |  |  |
| CCCCCCCCCCCCCC=C(C(=O)OCC)C(=O)OCC |  |  |  | 23.8 | Active |  |
